In patent US20240066136A1, “MODIFIED PROTEINS AND PROTEIN DEGRADERS” (Cullgen (Shanghai), Inc., priority 2020, published 2024):

target: Human DDB1 (Homo sapiens (Human), UniProt Q16531); assay: Surface plasmon resonance (SPR) binding assay to immobilized His-DDB1; conditions: SPR, DDB1 binding moieties with linkers and/or target protein binding moiety; read-out: Binding (Kd)
Protocol: The binding affinities of heterobifunctional compounds to DDB1 were determined by SPR assay. Purified His-DDB1 proteins were immobilized on a CM5 sensor chip, and a dose range of compound solutions were injected in multi-cycle kinetic format. Data were fit to steady state model and gave equivalent dissociation constants (KD).
Protein Expression and Purification. Human DDB1 (UniPro: Q16531) coding sequences were cloned into pFastBacHTB vector and were expressed in High5 cells using Bac-to-Bac baculovirus expression system (Thermo Fisher Scientific). […] DDB1 proteins were obtained from supernatant of cell lysates and purified through sequential application of Ni affinity (Ni-NTA column. Bio-Rad), and size-exclusion (Superdex 200 16/600GL column, GE Healthcare) column chromatography.
Surface plasmon resonance (SPR) binding assay. All SPR studies were performed on a Biacore X100 plus or T200 instrument (GE Healthcare). Immobilization of purified His-DDB1 was carried out at 25° C. using a CM5 sensor chip. The surface was pre-equilibrated in HBS-EP running buffer (10 mM HEPES, pH7.4, 150 mM NaCl, 3 mM EDTA, 0.05% P20), then activated with EDC/NHS. His-DDB1 proteins were immobilized by amine coupling to a density of 11,000-13,000 resonance units (RUs) on flow cell FC2, whereas flow cell FC1 was used as reference. Both DDB1 immobilized and reference surfaces were deactivated with 1M ethanolamine.
All interaction experiments were performed at 25° C. […] Compound Solutions were injected individually in multi-cycle kinetic format without regeneration (flow rate […], association time 120 s, dissociation time 120 s). Sensorgrams from reference surfaces and blank injections were subtracted from the raw data (double-referencing) and the data was solvent-corrected prior to analysis. All data were fit to steady state affinity model using Biacore Evaluation Software and gave equivalent dissociation constants (KD).

Sequence of Human DDB1 (Q16531 whole entry): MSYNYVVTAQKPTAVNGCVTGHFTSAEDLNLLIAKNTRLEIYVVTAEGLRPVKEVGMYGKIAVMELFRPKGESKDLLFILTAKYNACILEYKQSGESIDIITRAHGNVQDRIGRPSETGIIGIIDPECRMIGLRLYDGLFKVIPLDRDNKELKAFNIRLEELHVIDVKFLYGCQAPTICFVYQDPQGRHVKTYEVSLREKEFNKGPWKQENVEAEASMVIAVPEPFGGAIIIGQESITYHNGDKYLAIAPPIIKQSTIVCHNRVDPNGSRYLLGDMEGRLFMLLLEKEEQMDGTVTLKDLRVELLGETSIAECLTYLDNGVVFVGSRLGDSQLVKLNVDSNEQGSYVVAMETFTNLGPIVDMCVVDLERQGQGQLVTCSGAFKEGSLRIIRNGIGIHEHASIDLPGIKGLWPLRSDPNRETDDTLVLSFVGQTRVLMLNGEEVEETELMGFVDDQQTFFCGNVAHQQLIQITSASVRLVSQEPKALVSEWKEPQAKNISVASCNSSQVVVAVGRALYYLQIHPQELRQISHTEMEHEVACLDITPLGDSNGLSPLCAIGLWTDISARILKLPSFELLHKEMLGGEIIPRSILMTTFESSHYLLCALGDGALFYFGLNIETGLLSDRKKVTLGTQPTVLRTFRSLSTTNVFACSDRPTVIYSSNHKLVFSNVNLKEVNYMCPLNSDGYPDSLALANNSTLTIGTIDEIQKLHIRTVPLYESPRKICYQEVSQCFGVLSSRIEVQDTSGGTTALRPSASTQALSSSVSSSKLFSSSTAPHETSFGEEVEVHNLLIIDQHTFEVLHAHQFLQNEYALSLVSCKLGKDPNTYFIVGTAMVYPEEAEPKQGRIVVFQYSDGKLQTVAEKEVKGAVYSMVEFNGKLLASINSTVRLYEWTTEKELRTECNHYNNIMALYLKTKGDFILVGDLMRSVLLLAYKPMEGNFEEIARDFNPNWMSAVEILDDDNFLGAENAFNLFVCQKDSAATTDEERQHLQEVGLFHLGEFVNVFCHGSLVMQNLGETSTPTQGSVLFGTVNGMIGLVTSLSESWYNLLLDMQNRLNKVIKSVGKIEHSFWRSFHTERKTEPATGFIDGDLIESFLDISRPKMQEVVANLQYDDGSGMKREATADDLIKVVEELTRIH

| Kd [µM] | Structure (SMILES) |
| --- | --- |
| 20 to 100 | CC(=O)Nc1cc(NCCCCCCCNC(=O)C[C@@H]2N=C(c3ccc(Cl)cc3)c3c(sc(C)c3C)-n3c(C)nnc32)ccc1C(=O)Nc1nc(C)c([N+](=O)[O-])s1 [D-29, (S)-2-Acetamido-4-((7-(2-(4-(4-chlorophenyl)-2,3,9-trimethyl-6H-thieno[3,2-f][1,2,4]triazolo[4,3-a][1,4]diazepin-6-yl)acetamido)heptyl)amino)-N-(4-methyl-5-nitrothiazol-2-yl)benzamide] |
| < 20 | CC(=O)Nc1cc(NCCOCCOCCOCCN)ccc1C(=O)Nc1ncc([N+](=O)[O-])s1 [BL-9, 2-Acetamido-4-((2-(2-(2-(2-aminoethoxy)ethoxy)ethoxy)ethyl)amino)-N-(5-nitrothiazol-2-yl)benzamide] |
| 20 to 100 | CC(=O)Nc1cc(NCCNC(=O)C[C@@H]2N=C(c3ccc(Cl)cc3)c3c(sc(C)c3C)-n3c(C)nnc32)ccc1C(=O)Nc1nc(C)c([N+](=O)[O-])s1 [D-26, (S)-2-Acetamido-4-((2-(2-(4-(4-chlorophenyl)-2,3,9-trimethyl-6H-thieno[3,2-f][1,2,4]triazolo[4,3-a][1,4]diazepin-6-yl)acetamido)ethyl)amino)-N-(4-methyl-5-nitrothiazol-2-yl)benzamide] |
| < 20 | CC(=O)Nc1cc(NCCOCCOCCNC(=O)CN2CCN(c3ccc(Nc4ncc5c(C)c(C(C)=O)c(=O)n(C6CCCC6)c5n4)nc3)CC2)ccc1C(=O)Nc1nc(C)c([N+](=O)[O-])s1 [D-45, 2-Acetamido-4-((2-(2-(2-(2-(4-(6-((6-acetyl-8-cyclopentyl-5-methyl-7-oxo-7,8-dihydropyrido[2,3-d]pyrimidin-2-yl)amino)pyridin-3-yl)piperazin-1-yl)acetamido)ethoxy)ethoxy)ethyl)amino)-N-(4-methyl-5-nitrothiazol-2-yl)benzamide] |
| 20 to 100 | CC(=O)Nc1cc(NCCCCN)ccc1C(=O)Nc1ccc([N+](=O)[O-])s1 [BL-20, 2-Acetamido-4-((4-aminobutyl)amino)-N-(5-nitrothiophen-2-yl)benzamide] |
| 20 to 100 | CC(=O)Nc1cc(C(=O)NCCOCCOCCOCCN)ccc1C(=O)Nc1ncc([N+](=O)[O-])s1 [BL-6, 2-acetamido-N^4-(2-(2-(2-(2-aminoethoxy)ethoxy)ethoxy)ethyl)-N^1-(5-nitrothiazol-2-yl)terephthalamide] |

same assay, conditions: SPR, steady state affinity model, 25° C.; read-out: Binding (DDB1 binder activities, Kd)

| Kd [µM] | Structure (SMILES) |
| --- | --- |
| < 20 | CC(C)c1ccccc1C(=O)Nc1ncc([N+](=O)[O-])s1 [B-84, 2-Isopropyl-N-(5-nitrothiazol-2-yl)benzamide] |
| > 100 | CNC(=O)c1ccccc1C(=O)Nc1ncc([N+](=O)[O-])s1 [B-5, N^1-Methyl-N^2-(5-nitrothiazol-2-yl)phthalamide] |
| > 100 | CCCC(=O)Nc1ccc(C(=O)Nc2ncc([N+](=O)[O-])s2)c(OC(C)=O)c1 [B-21, 5-Butyramido-2-((5-nitrothiazol-2-yl)carbamoyl)phenyl acetate] |
| < 20 | CC(C)Cc1ccccc1C(=O)N(C)c1ncc([N+](=O)[O-])s1 [B-106, 2-Isobutyl-N-methyl-N-(5-nitrothiazol-2-yl)benzamide] |
| > 100 | Cc1cccc(C)c1C(=O)Nc1ncc([N+](=O)[O-])s1 [B-157, 2,6-Dimethyl-N-(5-nitrothiazol-2-yl)benzamide] |
| 20 to 100 | O=C(Nc1ncc([N+](=O)[O-])s1)c1ccccc1NC(=O)C1CC1 [B-62, 2-(Cyclopropanecarboxamido)-N-(5-nitrothiazol-2-yl)benzamide] |
| 20 to 100 | CCCNC(=O)c1ccc(OC(C)=O)c(C(=O)Nc2ncc([N+](=O)[O-])s2)c1 [B-13, 2-((5-Nitrothiazol-2-yl)carbamoyl)-4-(propylcarbamoyl)phenyl acetate] |
| > 100 | CCOc1cccc(C)c1C(=O)Nc1ncc([N+](=O)[O-])s1 [B-159, 2-Ethoxy-6-methyl-N-(5-nitrothiazol-2-yl)benzamide] |
| < 20 | CCCCNc1ccc(C(=O)Nc2nc(C(F)(F)F)c([N+](=O)[O-])s2)c(-c2ccccc2)c1 [B-114, 5-(Butylamino)-N-(5-nitro-4-(trifluoromethyl)thiazol-2-yl)-[1,1′-biphenyl]-2-carboxamide] |
| 20 to 100 | CC(=O)Nc1ccccc1C(=O)Nc1nc(C2CC2)c([N+](=O)[O-])s1 [B-32, 2-Acetamido-N-(4-cyclopropyl-5-nitrothiazol-2-yl)benzamide] |
| > 100 | Cc1cc(C(C)C)ccc1C(=O)Nc1ncc([N+](=O)[O-])s1 [B-164, 4-Isopropyl-2-methyl-N-(5-nitrothiazol-2-yl)benzamide] |
| 20 to 100 | CC(=O)Nc1ccccc1C(=O)Nc1ccc(C(C)C)s1 [B-129, 2-Acetamido-N-(5-isopropylthiophen-2-yl)benzamide] |
| 20 to 100 | CCCCNc1ccc(C)c(C(=O)Nc2ncc([N+](=O)[O-])s2)c1 [B-148, 5-(Butylamino)-2-methyl-N-(5-nitrothiazol-2-yl)benzamide] |
| 20 to 100 | CNc1ccccc1C(=O)Nc1ncc([N+](=O)[O-])s1 [B-68, 2-(Methylamino)-N-(5-nitrothiazol-2-yl)benzamide] |
| 20 to 100 | CCCCNc1ccc(C(=O)Nc2ncc(-c3ccccc3)s2)c(-c2ccccc2)c1 [B-120, 5-(Butylamino)-N-(5-phenylthiazol-2-yl)-[1,1′-biphenyl]-2-carboxamide] |
| 20 to 100 | CCCNC(=O)c1cccc(OC(C)=O)c1C(=O)Nc1ncc([N+](=O)[O-])s1 [B-14, 2-((5-Nitrothiazol-2-yl)carbamoyl)-3-(propylcarbamoyl)phenyl acetate] |
| 20 to 100 | O=C1CCCCCN1c1ncc([N+](=O)[O-])s1 [B-100, 1-(5-Nitrothiazol-2-yl)azepan-2-one] |

| Kd [µM] | Structure (SMILES) |
| --- | --- |
| > 100 | CN(C(=O)c1ccccc1CCC(F)(F)F)c1ncc([N+](=O)[O-])s1 [B-105, N-Methyl-N-(5-nitrothiazol-2-yl)-2-(3,3,3-trifluoropropyl)benzamide] |
| < 20 | CC(=O)Nc1ccccc1C(=O)Nc1cccc([N+](=O)[O-])c1 [B-124, 2-Acetamido-N-(3-nitrophenyl)benzamide] |
| > 100 | CC(=O)Nc1ccccc1C(=O)Nc1nc(S(C)(=O)=O)cs1 [B-48, 2-Acetamido-N-(4-(methylsulfonyl)thiazol-2-yl)benzamide] |
| 20 to 100 | O=C(Nc1ncc([N+](=O)[O-])s1)c1ccccc1O [B-2, 2-hydroxy-N-(5-nitrothiazol-2-yl)benzamide] |
| 20 to 100 | CCCCNc1ccc(C(=O)Nc2ncc([N+](=O)[O-])s2)c(C)c1 [B-165, 4-(Butylamino)-2-methyl-N-(5-nitrothiazol-2-yl)benzamide] |
| 20 to 100 | CN(C)S(=O)(=O)c1ccccc1C(=O)Nc1ncc([N+](=O)[O-])s1 [B-82, 2-(N,N-dimethylsulfamoyl)-N-(5-nitrothiazol-2-yl)benzamide] |
| 20 to 100 | O=C(Nc1ncc([N+](=O)[O-])s1)c1ccccc1 [B-3, N-(5-Nitrothiazol-2-yl)benzamide] |
| 20 to 100 | CCCCNc1ccc(C(=O)Nc2ncc([N+](=O)[O-])s2)c(OCC)c1 [B-160, 4-(Butylamino)-2-ethoxy-N-(5-nitrothiazol-2-yl)benzamide] |
| 20 to 100 | CCCCNc1ccc(C(=O)Nc2ccc([N+](=O)[O-])s2)c(-c2ccccc2)c1 [B-135, 5-(Butylamino)-N-(5-nitrothiophen-2-yl)-[1,1′-biphenyl]-2-carboxamide] |
| > 100 | CC(=O)Nc1ccccc1C(=O)Nc1ncc(Br)s1 [B-37, 2-Acetamido-N-(5-bromothiazol-2-yl)benzamide] |
| 20 to 100 | Nc1nc(N2CCOCC2)nc2c1CCN(Cc1cccc3cccnc13)C2 [B-136, 2-morpholino-7-(quinolin-8-ylmethyl)-5,6,7,8-tetrahydropyrido[3,4-d]pyrimidin-4-amine] |
| 20 to 100 | CC(=O)Nc1ccccc1C(=O)Nc1ncc(C(C)C)s1 [B-43, 2-Acetamido-N-(5-isopropylthiazol-2-yl)benzamide] |
| < 20 | CCCCNc1ccc(C(=O)Nc2ncc([N+](=O)[O-])s2)c(-c2ccccc2)c1 [B-110, 5-(Butylamino)-N-(5-nitrothiazol-2-yl)-[1,1′-biphenyl]-2-carboxamide] |
| 20 to 100 | CCOc1cc(NC2CCOCC2)ccc1C(=O)Nc1ncc([N+](=O)[O-])s1 [B-98, 2-Ethoxy-N-(5-nitrothiazol-2-yl)-4-((tetrahydro-2H-pyran-4-yl)amino)benzamide] |
| 20 to 100 | CCCCNc1ccc(C(=O)Nc2ncc([N+](=O)[O-])s2)c(C(C)C)c1 [B-109, 4-(Butylamino)-2-isopropyl-N-(5-nitrothiazol-2-yl)benzamide] |
| 20 to 100 | CC(=O)Nc1ccccc1C(=O)Nc1ccc(C#N)s1 [B-128, 2-Acetamido-N-(5-cyanothiophen-2-yl)benzamide] |
| < 20 | CC(=O)Nc1ccccc1C(=O)Nc1nc(C(C)C)c([N+](=O)[O-])s1 [B-33, 2-Acetamido-N-(4-isopropyl-5-nitrothiazol-2-yl)benzamide] |

| Structure (SMILES) | Kd [µM] |
| --- | --- |
| CC(=O)Nc1ccccc1C(=O)Nc1ccc(Br)cn1 [B-55, 2-Acetamido-N-(5-bromopyridin-2-yl)benzamide] | 20 to 100 |
